The text below walks through data of patent publication US12209102B2, “Heterocyclic compounds and uses thereof” (Kumquat Biosciences Inc., priority 2022, dated 2025).

For test [1], the target named is T1, K-Ras G12D (Homo sapiens, UniProt P01116, G12D).
T1 construct: made in house; host or cells: E. coli BL21 (DE3)
The test is described as follows: HTRF resonance energy transfer assay, K-Ras G12D / SOS1 interaction. The format is biochemical. The conditions noted are these: HTRF assay of Example 5; read-out: IC50 against K-Ras G12D. In outline: (§1)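 Buffer about 5 mM HEPES pH 7.4 with ~150 mM NaCl, ~1 mM DTT, 0.05% BSA, 0.0025% (v/v) Igepal. Protein constructs used at molarity matching the IC50 range studied (e.g. ~500 nM). FRET between tagged K-Ras and hSOS1 measured after short incubation.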

For test [2], the target named is T2, K-Ras G12S (Homo sapiens, UniProt P01116, G12S).
T2 construct: made in house; host or cells: E. coli BL21 (DE3)
The test is described as follows: HTRF resonance energy transfer assay, K-Ras G12S / SOS1 interaction. It counts as biochemical. The following applies: HTRF assay of Example 5; read-out: IC50 against K-Ras G12S. An outline of the steps: as §1
(In general: TR-FRET usually uses a lanthanide donor and a delayed reading to cut background.)

Test [3] deals with T3, K-Ras G12V (Homo sapiens, UniProt P01116, G12V).
T3 construct: made in house; host or cells: E. coli BL21 (DE3)
The test is described as follows: HTRF resonance energy transfer assay, K-Ras G12V / SOS1 interaction. The format is biochemical. The following applies: HTRF assay of Example 5; read-out: IC50 against K-Ras G12V. In outline: as §1

Test [4] deals with T4, K-Ras WT (Homo sapiens, UniProt P01116).
T4 construct: made in house; host or cells: E. coli BL21 (DE3)
The test is described as follows: HTRF resonance energy transfer assay, K-Ras WT / SOS1 interaction. The format is biochemical. The following applies: HTRF assay of Example 5; read-out: IC50 against K-Ras WT. In outline:
as §1

Test [5] concerns GP2D cells. Briefly: Ras cellular assay, growth of cells with K-Ras G12D mutation (CellTiter-Glo). The format is cell-based. The following applies: cell growth, Example 9, G12D mutation, read-out: IC50 against GP2D cells.
The subject of test [6] is A549 cells. The test is described as follows: Ras cellular assay, growth of cells with K-Ras G12S mutation (CellTiter-Glo). The conditions noted are these: Homo sapiens, cell growth, Example 9, G12S mutation, read-out: IC50 against A549 cells. It counts as cell-based. An outline of the steps: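 Growth inhibition IC50 values come from four-parameter fits of CellTiter-Glo luminescence, read about 6 days after compound addition. G12S-mutant A549 cells (e.g. 800/well, RPMI-1640 + 10% heat-inactivated FBS) were plated in tissue-culture-treated or ultra-low-attachment 384-well format. Dosing began the following day with serial dilutions, e.g. 10 points, 3-fold.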
In general terms: ATP-based viability assays read luminescence as a measure of living cells.

In test [7] the test system is SW620 cells. Briefly: Ras cellular assay, growth of cells with K-Ras G12V mutation (CellTiter-Glo). It counts as cell-based. The following applies: Homo sapiens, SW-620; cell growth, Example 9, G12V mutation; read-out: IC50 against SW620 cells. In outline: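 IC50 values came from a four-parameter fit of CellTiter-Glo viability, read roughly 6 days after dosing with e.g. a 10-point threefold dilution series. G12V-mutant SW620 cells (e.g. 800 per well) had been plated the previous day in RPMI-1640/10% heat-inactivated FBS, on tissue culture-treated or ultra-low attachment plates.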

A word on the IC50: it is the concentration that gives 50% inhibition.

Some results are limits rather than exact numbers.

T3 sequence (P01116 1-188 isoform P01116-2 G12V): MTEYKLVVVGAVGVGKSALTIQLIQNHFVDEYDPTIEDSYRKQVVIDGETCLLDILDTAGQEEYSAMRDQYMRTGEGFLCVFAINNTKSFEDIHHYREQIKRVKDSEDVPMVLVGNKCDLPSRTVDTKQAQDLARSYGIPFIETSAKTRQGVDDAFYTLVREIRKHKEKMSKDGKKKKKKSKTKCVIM
T1 sequence (P01116 1-188 isoform P01116-2 G12D): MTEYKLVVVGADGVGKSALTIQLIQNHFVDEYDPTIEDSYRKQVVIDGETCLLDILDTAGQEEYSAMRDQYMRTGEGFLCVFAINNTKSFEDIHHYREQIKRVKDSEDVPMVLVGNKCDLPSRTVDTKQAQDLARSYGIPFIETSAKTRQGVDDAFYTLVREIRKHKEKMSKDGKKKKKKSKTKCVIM
T4 sequence (P01116 1-188 isoform P01116-2): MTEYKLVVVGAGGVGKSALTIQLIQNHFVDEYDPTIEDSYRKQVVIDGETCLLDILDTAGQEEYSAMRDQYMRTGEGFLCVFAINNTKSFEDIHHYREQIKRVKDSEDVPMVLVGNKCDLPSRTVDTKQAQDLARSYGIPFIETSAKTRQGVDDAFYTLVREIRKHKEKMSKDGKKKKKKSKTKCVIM
T2 sequence (P01116 1-188 isoform P01116-2 G12S): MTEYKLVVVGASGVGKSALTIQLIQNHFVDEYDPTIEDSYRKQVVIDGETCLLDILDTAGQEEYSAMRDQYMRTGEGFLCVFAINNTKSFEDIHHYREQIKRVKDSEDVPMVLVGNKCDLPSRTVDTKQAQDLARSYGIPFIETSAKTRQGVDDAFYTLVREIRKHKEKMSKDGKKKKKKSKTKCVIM

In the case of `C[C@H]1CN(CC(F)F)c2nc(OC[C@@]34CCCN3C[C@H](F)C4)nc3c(F)c(-c4ccc(F)c5sc(N)c(C#N)c45)c(Cl)c(c23)O1` [Compound 1021, 2-amino-4-((6S)-8-chloro-4-(2,2-difluoroethyl)-10-fluoro-2-(((2R,7aS)-2-fluorotetrahydro-1H-pyrrolizin-7a(5H)-yl)methoxy)-6-methyl-5,6-dihydro-4H-[1,4]oxazepino[5,6,7-de]quinazolin-9-yl)-7-fluorobenzo[b]thiophene-3-carbonitrile], the 50% inhibitory concentration (IC50) in test [1] is less than 0.1 µM; in test [2], less than 0.1 µM; in test [3], less than 0.1 µM; in test [4], less than 0.1 µM; in test [5], less than 0.5 µM; in test [6], less than 5 µM. For the same compound, the IC50 in test [7] was less than 5 µM.
For the compound `N#Cc1c(N)sc2c(F)ccc(-c3c(Cl)c4c5c(nc(OC[C@@]67CCCN6C[C@H](F)C7)nc5c3F)N(C3CCN(C(=O)C[C@H]5CCCO5)C3)CCO4)c12` (stereo partly drawn) [Compound 1024, 2-amino-4-(8-chloro-10-fluoro-2-(((2R,7aS)-2-fluorotetrahydro-1H-pyrrolizin-7a(5H)-yl)methoxy)-4-(1-(2-((R)-tetrahydrofuran-2-yl)acetyl)pyrrolidin-3-yl)-5,6-dihydro-4H-[1,4]oxazepino[5,6,7-de]quinazolin-9-yl)-7-fluorobenzo[b]thiophene-3-carbonitrile], the 50% inhibitory concentration (IC50) was less than 0.1 µM in test [1]; less than 0.1 µM in test [2]; less than 0.1 µM in test [3]; less than 0.1 µM in test [4]; less than 0.5 µM in test [5]; less than 5 µM in test [6]. Further, the half-maximal inhibitory concentration (IC50) in test [7] was less than 5 µM.
On to `CC(C)N1CCOc2c(Cl)c(-c3ccc(F)c4sc(N)c(C#N)c34)c(F)c3nc(OC[C@@]45CCCN4C[C@H](F)C5)nc1c23` [Compound 1025, 2-amino-4-(8-chloro-10-fluoro-2-(((2R,7aS)-2-fluorotetrahydro-1H-pyrrolizin-7a(5H)-yl)methoxy)-4-isopropyl-5,6-dihydro-4H-[1,4]oxazepino[5,6,7-de]quinazolin-9-yl)-7-fluorobenzo[b]thiophene-3-carbonitrile], for which the IC50 is less than 0.1 µM in test [1]; less than 0.1 µM in test [2]; less than 0.1 µM in test [3]; less than 0.1 µM in test [4]; less than 0.5 µM in test [5]; less than 5 µM in test [6]. Moreover, the IC50 in test [7] was less than 5 µM.
As for `N#Cc1c(N)sc2c(F)ccc(-c3c(Cl)c4c5c(nc(OC[C@@]67CCCN6C[C@H](F)C7)nc5c3F)N(CC(F)F)[C@@H](CNC=O)CO4)c12` [Compound 1028, N-(((5S)-9-(2-amino-3-cyano-7-fluorobenzo[b]thiophen-4-yl)-8-chloro-4-(2,2-difluoroethyl)-10-fluoro-2-(((2R,7aS)-2-fluorotetrahydro-1H-pyrrolizin-7a(5H)-yl)methoxy)-5,6-dihydro-4H-[1,4]oxazepino[5,6,7-de]quinazolin-5-yl)methyl)formamide], the IC50 was less than 0.1 µM in test [1]; less than 0.1 µM in test [2]; less than 0.1 µM in test [3]; less than 0.1 µM in test [4]; less than 0.5 µM in test [5]; less than 5 µM in test [6]. Further, in test [7], the 50% inhibitory concentration (IC50) was less than 5 µM.
Regarding `COC1(C(=O)N2CCC(N3CCOc4c(Cl)c(-c5ccc(F)c6sc(N)c(C#N)c56)c(F)c5nc(OC[C@@]67CCCN6C[C@H](F)C7)nc3c45)C2)CC1` (stereo partly drawn) [Compound 1038, 2-amino-4-(8-chloro-10-fluoro-2-(((2R,7aS)-2-fluorotetrahydro-1H-pyrrolizin-7a(5H)-yl)methoxy)-4-(1-(1-methoxycyclopropane-1-carbonyl)pyrrolidin-3-yl)-5,6-dihydro-4H-[1,4]oxazepino[5,6,7-de]quinazolin-9-yl)-7-fluorobenzo[b]thiophene-3-carbonitrile], the half-maximal inhibitory concentration (IC50) in test [1] is less than 0.1 µM; in test [2], less than 0.1 µM; in test [3], less than 0.1 µM; in test [4] it was less than 0.1 µM; in test [5], less than 0.5 µM; in test [6], less than 5 µM. Besides, the half-inhibitory concentration (IC50) in test [7] is less than 5 µM.
For `CC(C)(C#N)CN1CCOc2c(Cl)c(-c3ccc(F)c4sc(N)c(C#N)c34)c(F)c3nc(OC[C@@]45CCCN4C[C@H](F)C5)nc1c23` [Compound 1048, 2-amino-4-(8-chloro-4-(2-cyano-2-methylpropyl)-10-fluoro-2-(((2R,7aS)-2-fluorotetrahydro-1H-pyrrolizin-7a(5H)-yl)methoxy)-5,6-dihydro-4H-[1,4]oxazepino[5,6,7-de]quinazolin-9-yl)-7-fluorobenzo[b]thiophene-3-carbonitrile], the half-maximal inhibitory concentration (IC50) in test [1] was less than 0.1 µM; in test [2] it was less than 0.1 µM; in test [3] it was less than 0.1 µM; in test [4] it was less than 0.1 µM; in test [5], less than 0.5 µM; in test [6] it was less than 5 µM. Besides, the IC50 in test [7] was less than 5 µM.
With `N#Cc1c(N)sc2c(F)ccc(-c3c(Cl)c4c5c(nc(OC[C@@]67CCCN6C[C@H](F)C7)nc5c3F)N(C3CCN(C=O)C3)CCO4)c12` (stereo partly drawn) [Compound 1052, 2-amino-4-(8-chloro-10-fluoro-2-(((2R,7aS)-2-fluorotetrahydro-1H-pyrrolizin-7a(5H)-yl)methoxy)-4-(1-formylpyrrolidin-3-yl)-5,6-dihydro-4H-[1,4]oxazepino[5,6,7-de]quinazolin-9-yl)-7-fluorobenzo[b]thiophene-3-carbonitrile], the 50% inhibitory concentration (IC50) in test [1] is less than 0.1 µM; in test [2], less than 0.1 µM; in test [3], less than 0.1 µM; in test [4] it was less than 0.1 µM; in test [5] it was less than 0.5 µM; in test [6], less than 5 µM. The IC50 in test [7] is less than 5 µM.
Take `N#Cc1c(N)sc2c(F)ccc(-c3c(Cl)c4c5c(nc(OC[C@@]67CCCN6C[C@H](F)C7)nc5c3F)N(CC(F)F)[C@@H](C(F)F)CO4)c12` [Compound 1057, 2-amino-4-((5R)-8-chloro-4-(2,2-difluoroethyl)-5-(difluoromethyl)-10-fluoro-2-(((2R,7aS)-2-fluorotetrahydro-1H-pyrrolizin-7a(5H)-yl)methoxy)-5,6-dihydro-4H-[1,4]oxazepino[5,6,7-de]quinazolin-9-yl)-7-fluorobenzo[b]thiophene-3-carbonitrile]: the half-maximal inhibitory concentration (IC50) in test [1] is less than 0.1 µM; in test [2] it was less than 0.1 µM; in test [3], less than 0.1 µM; in test [4] it was less than 0.1 µM; in test [5], less than 0.5 µM; in test [6], less than 5 µM. In test [7], the IC50 was less than 5 µM.
As for `N#Cc1c(N)sc2c(F)ccc(-c3c(Cl)c4c5c(nc(OC[C@@]67CCCN6C[C@H](F)C7)nc5c3F)N(C3(C(F)F)CC3)CCO4)c12` [Compound 1060, 2-amino-4-(8-chloro-4-(1-(difluoromethyl)cyclopropyl)-10-fluoro-2-(((2R,7aS)-2-fluorotetrahydro-1H-pyrrolizin-7a(5H)-yl)methoxy)-5,6-dihydro-4H-[1,4]oxazepino[5,6,7-de]quinazolin-9-yl)-7-fluorobenzo[b]thiophene-3-carbonitrile], the IC50 in test [1] was less than 0.1 µM; in test [2], less than 0.1 µM; in test [3], less than 0.1 µM; in test [4], less than 0.1 µM; in test [5], less than 0.5 µM; in test [6], less than 5 µM. The 50% inhibitory concentration (IC50) in test [7] was less than 5 µM.
Regarding `COCCN1CCOc2c(Cl)c(-c3ccc(F)c4sc(N)c(C#N)c34)c(F)c3nc(OC[C@@]45CCCN4C[C@H](F)C5)nc1c23` [Compound 1061, 2-amino-4-(8-chloro-10-fluoro-2-(((2R,7aS)-2-fluorotetrahydro-1H-pyrrolizin-7a(5H)-yl)methoxy)-4-(2-methoxyethyl)-5,6-dihydro-4H-[1,4]oxazepino[5,6,7-de]quinazolin-9-yl)-7-fluorobenzo[b]thiophene-3-carbonitrile], the IC50 in test [1] is less than 0.1 µM; in test [2], less than 0.1 µM; in test [3], less than 0.1 µM; in test [4] it was less than 0.1 µM; in test [5], less than 0.5 µM; in test [6], less than 5 µM. For the same compound, in test [7], the half-maximal inhibitory concentration (IC50) is less than 5 µM.
As to `CN(C)C1(CN2CCOc3c(Cl)c(-c4ccc(F)c5sc(N)c(C#N)c45)c(F)c4nc(OC[C@@]56CCCN5C[C@H](F)C6)nc2c34)CCCC1` [Compound 1062, 2-amino-4-(8-chloro-4-((1-(dimethylamino)cyclopentyl)methyl)-10-fluoro-2-(((2R,7aS)-2-fluorotetrahydro-1H-pyrrolizin-7a(5H)-yl)methoxy)-5,6-dihydro-4H-[1,4]oxazepino[5,6,7-de]quinazolin-9-yl)-7-fluorobenzo[b]thiophene-3-carbonitrile], the IC50 in test [1] is less than 0.1 µM; in test [2], less than 0.1 µM; in test [3], less than 0.1 µM; in test [4] it was less than 0.1 µM; in test [5], less than 0.5 µM; in test [6], less than 5 µM. In addition, the IC50 in test [7] was less than 5 µM.
